The IC50 is the concentration at which inhibition is half-maximal. Lower therefore signals inhibition by little substance.

The text below walks through data of patent EP4603105A1, “PHARMACEUTICAL COMPOSITION CONTAINING CYCLIC COMPOUND HAVING SELECTIVE KRAS INHIBITORY EFFECT AGAINST HRAS AND NRAS” (CHUGAI SEIYAKU KABUSHIKI KAISHA, priority 2022, dated 2024).

Test [1] has as its target GDP-bound NRAS wild-type protein (Homo sapiens, UniProt P01111). As to the kind of experiment: Binding to NRAS by surface plasmon resonance (SPR), KD and KD ratio to KRAS. The following applies: ratio of the KD value with respect to GDP-bound NRAS wild-type protein to the KD value with respect to KRAS. The procedure, abridged: (§1)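 Captured GDP-RAS (~100–300 RU) was exposed to increasing compound concentrations, 75 s per step, in running buffer with 10 µM GDP, 10 mM MgCl2 and 4% DMSO at pH 7.4.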
For orientation: Surface plasmon resonance follows binding to a sensor surface in real time, without labels.

Test [2] has as its system human lung cancer strain NCI-H441. The test is classed as cell-based. The procedure, abridged: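 Step one: dispense the test compound in serial DMSO dilutions. Step three: add the reagent and measure […].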
Another test concerns the target HRAS wild-type protein (Homo sapiens, UniProt P01112). As to the kind of experiment: Binding to HRAS by surface plasmon resonance (SPR), KD and KD ratio to KRAS. The following applies: ratio of the KD value with respect to HRAS wild-type protein to the KD value with respect to KRAS. The procedure, abridged:
as §1

HRAS wild-type protein, sequence (P01112 whole entry): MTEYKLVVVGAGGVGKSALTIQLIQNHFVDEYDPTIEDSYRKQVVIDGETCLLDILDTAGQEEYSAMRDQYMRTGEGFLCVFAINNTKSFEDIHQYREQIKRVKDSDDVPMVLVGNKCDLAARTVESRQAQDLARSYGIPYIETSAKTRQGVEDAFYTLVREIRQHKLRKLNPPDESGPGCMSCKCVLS
GDP-bound NRAS wild-type protein, sequence (P01111 whole entry): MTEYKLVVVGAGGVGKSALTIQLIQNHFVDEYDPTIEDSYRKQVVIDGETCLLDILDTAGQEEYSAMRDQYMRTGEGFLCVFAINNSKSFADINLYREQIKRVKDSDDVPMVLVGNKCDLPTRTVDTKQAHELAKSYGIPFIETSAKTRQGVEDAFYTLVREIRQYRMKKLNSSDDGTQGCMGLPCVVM

On to `CC[C@H](C)[C@@H]1NC(=O)[C@H](CC(C)C)N(C)C(=O)C[C@@H](C(=O)N2CCOCC2)N(C)C(=O)[C@H](C2CCCC2)N(C)C(=O)C2(CCCC2)NC(=O)[C@@H]2CC(=O)CN2C(=O)[C@H](CCc2cc(F)c(C(F)(F)F)c(F)c2)NC(=O)CN(C)C(=O)[C@H](Cc2ccc(C(F)(F)F)cc2)N2CCCC[C@@H](C2=O)N(C)C(=O)CN(C)C1=O` [PP0555], for which the “NRAS /KRAS” value in test [1] is “B (a compound having 3 or more and less than 10 is denoted as B)”. In test [2], this molecule yielded an IC50 of 48.5 nM. In addition, the “HRAS /KRAS” value at HRAS wild-type protein was “B (a compound having 3 or more and less than 10 is denoted as B)”.
In the case of `CC[C@H](C)[C@@H]1NC(=O)[C@H](CC(C)C)N(C)C(=O)C[C@@H](C(=O)N2CCOCC2)N(C)C(=O)[C@H](C2CCCC2)N(C)C(=O)C2(CCCC2)NC(=O)[C@@H]2C[C@H](O)CN2C(=O)[C@H](CCc2cc(F)c(C(F)(F)F)c(F)c2)NC(=O)CN(C)C(=O)[C@H](Cc2ccc(C(F)(F)F)cc2)N2CCCC[C@@H](C2=O)N(C)C(=O)CN(C)C1=O` [PP0556], the “NRAS /KRAS” value in test [1] is “C (A compound having a KD ratio of 0.1 or more and less than 3 is denoted as C)”. In test [2], this molecule yielded an IC50 of 21 nM. Also, the “HRAS /KRAS” value at HRAS wild-type protein was “B (a compound having 3 or more and less than 10 is denoted as B)”.
As for `CC[C@H](C)[C@@H]1NC(=O)[C@H](CC(C)C)N(C)C(=O)C[C@@H](C(=O)N2CCOCC2)N(C)C(=O)[C@H](C2CCCC2)N(C)C(=O)C2(CCCC2)NC(=O)[C@@H]2C[C@H](OC)CN2C(=O)[C@H](CCc2cc(F)c(C(F)(F)F)c(F)c2)NC(=O)CN(C)C(=O)[C@H](Cc2ccc(C(F)(F)F)cc2)N2CCCC[C@@H](C2=O)N(C)C(=O)CN(C)C1=O` [PP0557], the “NRAS /KRAS” value in test [1] was “B (a compound having 3 or more and less than 10 is denoted as B)”. For the same molecule, in test [2], the IC50 is 14.8 nM. Moreover, the “HRAS /KRAS” value at HRAS wild-type protein was “B (a compound having 3 or more and less than 10 is denoted as B)”.
Regarding `CC[C@H](C)[C@@H]1NC(=O)[C@H](CC(C)C)N(C)C(=O)C[C@@H](C(=O)N2CCOCC2)N(C)C(=O)[C@H](C2CCCC2)N(C)C(=O)C2(CC2)NC(=O)[C@@H]2CCCN2C(=O)[C@H](CCc2cc(F)c(C(F)(F)F)c(F)c2)NC(=O)CN(C)C(=O)[C@H](Cc2ccc(C(F)(F)F)cc2)N2CCCC[C@@H](C2=O)N(C)C(=O)CN(C)C1=O` [PP0559], the “NRAS /KRAS” value in test [1] was “B (a compound having 3 or more and less than 10 is denoted as B)”. For the same molecule, the IC50 in test [2] is 23.1 nM. Further, the “HRAS /KRAS” value at HRAS wild-type protein was “B (a compound having 3 or more and less than 10 is denoted as B)”.
Regarding `CC[C@H](C)[C@@H]1NC(=O)[C@H](CC(C)C)N(C)C(=O)C[C@@H](C(=O)N2CCOCC2)N(C)C(=O)[C@H](C2CCCC2)N(C)C(=O)C2(CCC2)NC(=O)[C@@H]2CCCN2C(=O)[C@H](CCc2cc(F)c(C(F)(F)F)c(F)c2)NC(=O)CN(C)C(=O)[C@H](Cc2ccc(C(F)(F)F)cc2)N2CCCC[C@@H](C2=O)N(C)C(=O)CN(C)C1=O` [PP0560], the “NRAS /KRAS” value in test [1] is “B (a compound having 3 or more and less than 10 is denoted as B)”. In addition, half-maximal inhibition in test [2] (IC50) was put at 5.2 nM. Also, on HRAS wild-type protein, the “HRAS /KRAS” value was “B (a compound having 3 or more and less than 10 is denoted as B)”.
Turning to `CC[C@H](C)[C@@H]1NC(=O)[C@H](CC(C)C)N(C)C(=O)C[C@@H](C(=O)N2CCOCC2)N(C)C(=O)[C@H](C2CCCC2)N(C)C(=O)C2(CCCCC2)NC(=O)[C@@H]2CCCN2C(=O)[C@H](CCc2cc(F)c(C(F)(F)F)c(F)c2)NC(=O)CN(C)C(=O)[C@H](Cc2ccc(C(F)(F)F)cc2)N2CCCC[C@@H](C2=O)N(C)C(=O)CN(C)C1=O` [PP0561], the “NRAS /KRAS” value in test [1] was “B (a compound having 3 or more and less than 10 is denoted as B)”. Moreover, the IC50 in test [2] turned out to be 20.9 nM. Besides, at HRAS wild-type protein, the “HRAS /KRAS” value was “B (a compound having 3 or more and less than 10 is denoted as B)”.
As to `CC[C@H](C)[C@@H]1NC(=O)[C@H](CC(C)C)N(C)C(=O)C[C@@H](C(=O)N2CCOCC2)N(C)C(=O)[C@H](C2CCCC2)N(C)C(=O)C2(CC(F)(F)C2)NC(=O)[C@@H]2CCCN2C(=O)[C@H](CCc2cc(F)c(C(F)(F)F)c(F)c2)NC(=O)CN(C)C(=O)[C@H](Cc2ccc(C(F)(F)F)cc2)N2CCCC[C@@H](C2=O)N(C)C(=O)CN(C)C1=O` [PP0562], in test [1], the “NRAS /KRAS” value was “B (a compound having 3 or more and less than 10 is denoted as B)”. In test [2], the IC50 worked out at 4.4 nM. In addition, the “HRAS /KRAS” value on HRAS wild-type protein was “B (a compound having 3 or more and less than 10 is denoted as B)”.
For the molecule `CC[C@H](C)[C@@H]1NC(=O)[C@H](CC(C)C)N(C)C(=O)C[C@@H](C(=O)N2CCOCC2)N(C)C(=O)[C@H](C2CCCC2)N(C)C(=O)C2(COC2)NC(=O)[C@@H]2CCCN2C(=O)[C@H](CCc2cc(F)c(C(F)(F)F)c(F)c2)NC(=O)CN(C)C(=O)[C@H](Cc2ccc(C(F)(F)F)cc2)N2CCCC[C@@H](C2=O)N(C)C(=O)CN(C)C1=O` [PP0563], the “NRAS /KRAS” value in test [1] is “B (a compound having 3 or more and less than 10 is denoted as B)”. The molecule further gave an IC50 in test [2] of 29 nM. Moreover, at HRAS wild-type protein, the “HRAS /KRAS” value is “B (a compound having 3 or more and less than 10 is denoted as B)”.
Consider `CC[C@H](C)[C@@H]1NC(=O)[C@H](CC(C)C)N(C)C(=O)C[C@@H](C(=O)N2CCOCC2)N(C)C(=O)[C@H](C2CCCC2)N(C)C(=O)C2(CCOCC2)NC(=O)[C@@H]2CCCN2C(=O)[C@H](CCc2cc(F)c(C(F)(F)F)c(F)c2)NC(=O)CN(C)C(=O)[C@H](Cc2ccc(C(F)(F)F)cc2)N2CCCC[C@@H](C2=O)N(C)C(=O)CN(C)C1=O` [PP0564], for which the “NRAS /KRAS” value in test [1] is “B (a compound having 3 or more and less than 10 is denoted as B)”. In test [2], this molecule showed an IC50 of 18.4 nM. Besides, the “HRAS /KRAS” value on HRAS wild-type protein was “B (a compound having 3 or more and less than 10 is denoted as B)”.
Regarding `CC[C@H](C)[C@@H]1NC(=O)[C@H](CC(C)C)N(C)C(=O)C[C@@H](C(=O)N2CCOCC2)N(C)C(=O)[C@H](C2CCCC2)N(C)C(=O)C(C)(C)NC(=O)[C@@H]2CCCN2C(=O)[C@H](CCc2cc(F)c(C(F)(F)F)c(F)c2)NC(=O)CN(C)C(=O)[C@H](Cc2ccc(C(F)(F)F)cc2)N2CCCC[C@@H](C2=O)N(C)C(=O)CN(C)C1=O` [PP0565], the “NRAS /KRAS” value in test [1] is “C (A compound having a KD ratio of 0.1 or more and less than 3 is denoted as C)”. This molecule showed an IC50 in test [2] of 11.5 nM. Further, the “HRAS /KRAS” value at HRAS wild-type protein was “B (a compound having 3 or more and less than 10 is denoted as B)”.
As to `CC[C@H](C)[C@@H]1NC(=O)[C@H](CC(C)C)N(C)C(=O)C[C@@H](C(=O)N2CCOCC2)N(C)C(=O)[C@H](C2CCC2)N(C)C(=O)C2(CCCC2)NC(=O)[C@@H]2CCCN2C(=O)[C@H](CCc2cc(F)c(C(F)(F)F)c(F)c2)NC(=O)CN(C)C(=O)[C@H](Cc2ccc(C(F)(F)F)cc2)N2CCCC[C@@H](C2=O)N(C)C(=O)CN(C)C1=O` [PP0566], in test [1], the “NRAS /KRAS” value is “B (a compound having 3 or more and less than 10 is denoted as B)”. The molecule further returned an IC50 in test [2] of 18.4 nM. Further, the “HRAS /KRAS” value at HRAS wild-type protein is “B (a compound having 3 or more and less than 10 is denoted as B)”.
For the molecule `CC[C@H](C)[C@@H]1NC(=O)[C@H](CC(C)C)N(C)C(=O)C[C@@H](C(=O)N2CCOCC2)N(C)C(=O)[C@H](C2CCCCC2)N(C)C(=O)C2(CCCC2)NC(=O)[C@@H]2CCCN2C(=O)[C@H](CCc2cc(F)c(C(F)(F)F)c(F)c2)NC(=O)CN(C)C(=O)[C@H](Cc2ccc(C(F)(F)F)cc2)N2CCCC[C@@H](C2=O)N(C)C(=O)CN(C)C1=O` [PP0567], the “NRAS /KRAS” value in test [1] is “B (a compound having 3 or more and less than 10 is denoted as B)”. In test [2], this molecule showed an IC50 of 8.3 nM. The “HRAS /KRAS” value at HRAS wild-type protein was “B (a compound having 3 or more and less than 10 is denoted as B)”.
With `CC[C@H](C)[C@@H]1NC(=O)[C@H](CC(C)C)N(C)C(=O)C[C@@H](C(=O)N2CCOCC2)N(C)C(=O)[C@H](CC(F)(F)F)N(C)C(=O)C2(CCCC2)NC(=O)[C@@H]2CCCN2C(=O)[C@H](CCc2cc(F)c(C(F)(F)F)c(F)c2)NC(=O)CN(C)C(=O)[C@H](Cc2ccc(C(F)(F)F)cc2)N2CCCC[C@@H](C2=O)N(C)C(=O)CN(C)C1=O` [PP0568], the “NRAS /KRAS” value in test [1] was “B (a compound having 3 or more and less than 10 is denoted as B)”. Moreover, the IC50 in test [2] turned out to be 79.5 nM. In addition, the “HRAS /KRAS” value at HRAS wild-type protein was “B (a compound having 3 or more and less than 10 is denoted as B)”.
Turning to `CC[C@H](C)[C@@H]1NC(=O)[C@H](CC(C)C)N(C)C(=O)C[C@@H](C(=O)N(C)C)N(C)C(=O)[C@H](C2CCCC2)N(C)C(=O)C2(CCCC2)NC(=O)[C@@H]2CCCN2C(=O)[C@H](CCc2cc(F)c(C(F)(F)F)c(F)c2)NC(=O)CN(C)C(=O)[C@H](Cc2ccc(C(F)(F)F)cc2)N2CCCC[C@@H](C2=O)N(C)C(=O)CN(C)C1=O` [PP0569], in test [1], the “NRAS /KRAS” value was “C (A compound having a KD ratio of 0.1 or more and less than 3 is denoted as C)”. Besides, in test [2], the IC50 was determined as 2.8 nM. Moreover, the “HRAS /KRAS” value at HRAS wild-type protein was “B (a compound having 3 or more and less than 10 is denoted as B)”.
As for `CC[C@H](C)[C@@H]1NC(=O)[C@H](CC(C)C)N(C)C(=O)C[C@@H](C(=O)N2CCC2)N(C)C(=O)[C@H](C2CCCC2)N(C)C(=O)C2(CCCC2)NC(=O)[C@@H]2CCCN2C(=O)[C@H](CCc2cc(F)c(C(F)(F)F)c(F)c2)NC(=O)CN(C)C(=O)[C@H](Cc2ccc(C(F)(F)F)cc2)N2CCCC[C@@H](C2=O)N(C)C(=O)CN(C)C1=O` [PP0570], in test [1], the “NRAS /KRAS” value is “B (a compound having 3 or more and less than 10 is denoted as B)”. Further, the IC50 in test [2] was determined as 7.5 nM. Further, the “HRAS /KRAS” value on HRAS wild-type protein is “B (a compound having 3 or more and less than 10 is denoted as B)”.
